Tests used:
TLR4 + (Wild type) mice = experiment: Toxin-induced liver injury in TLR4 + (wild type) mice; type: in vivo
Method: (§1) The role of TLR4 in ALF and SIRS was studied. […] A similar protective effect of TLR4 deficiency was also observed when wild-type and TLR4 mutant mice were treated with acetaminophen (APAP) at 500 mg/kg—a dose which is highly toxic with 100% mortality in wild-type mice (Table 2). Systemic inflammation was confirmed in wild-type mice after both APAP and Dgal/LPS by rising blood levels of TNFα and neutrophil infiltration in their lungs at necropsy. In contrast, lung histology and systemic levels of TNFα remained normal in TLR4 deficient mice. […] TLR4 deficient Kupffer cells may also explain the protective effects observed in TLR4 deficient mice after toxin exposure (FIG. 6c). […] Pretreatment with gadolinium chloride reduced the number of Kupffer cells in the liver by 48% (31±6 to 16±4 cells/HPF, p<0.001), and lowered peak ALT levels from 2458±2347 U/mL to 278±196 U/mL.

TLR4 − (Deficient) mice = experiment: Toxin-induced liver injury in TLR4 − (deficient) mice; type: in vivo; details: n = 10/group
Method: as §1

TLR4 = TLR4 agonist activity of mouse serum, luciferase reporter in HEK293/Luc(+)/TLR4(+) cells; type: cell-based; details: mouse serum 6 hours after APAP 500 mg/kg vs 0 mg/kg sham controls, p<0.001
Text: FIGS. 7(a)-7(c): (a) TLR4 Signaling Complex is found in many cell types. It can also be stably transfected into reporter cells to measure TLR4 agonist activity in vitro; (b) is a schematic representation of HEK293 cells which have been transfected with TLR4 complex and a luciferase reporter gene to measure TLR4 agonist activity in vitro. The HEK293/Luc(+)/TLR4(+) cells, used to measure TLR4 agonist activity in mouse serum in (c) are used to screen dog serum for TLR4 agonist activity; (c) TLR4 agonist activity was elevated in mouse blood after toxic exposure to APAP (500 vs 0 mg/kg). This in vitro assay is based on a luciferase reporter gene linked to NFκβ in HEK293 cells which responds to TLR4 activation. Only trace background activity was detected in HEK293 cells lacking the TLR4 complex, labeled TLR4(−), confirming specificity of the luciferase activity to TLR4.
Further evidence supporting TLR4 as a signaling molecule in the SIRS response to ALF is illustrated in FIG. 7. FIGS. 7a-b show the assay, as well as the TLR4 receptor complex, used in the study.
TLR4 agonist activity are measured by an in vitro assay using HEK293/Luc(+)/TLR4(+) cells (see, e.g., Akira S, Takeda K. Toll-like receptor signaling. Nat Rev Immunol 2004; 4:499-511). […] Luciferase reporter gene signal are quantified by TD-20/20 luminometer (Turner Designs, Sunnyvale, Calif.). […]

[1] = wild type mice, 6 hr, n = 10/group

SMILES: [Cl][Gd]([Cl])[Cl] [gadolinium chloride]
- number of Kupffer cells in the liver (TLR4 + (Wild type) mice; after pretreatment, 31±6 without): 16±4 cells/HPF
- reduction of the number of Kupffer cells in the liver (TLR4 + (Wild type) mice; pretreatment of wild-type mice, p<0.001): 48%
- ALT, TLR4 + (TLR4 + (Wild type) mice; [1]): 278±196 U/mL

SMILES: N[C@H]1C(O)O[C@H](CO)[C@H](O)[C@@H]1O (stereo partly drawn) [DGal alone, D-galactosamine]
- ALT, TLR4 − (TLR4 − (Deficient) mice; 6 hr): 54 ± 18 U/mL
- TUNEL, TLR4 − (TLR4 − (Deficient) mice; 6 hr): <1 +cells/HPF
- ALT, TLR4 + (TLR4 + (Wild type) mice; [1]): 43 ± 9 U/mL
- TUNEL, TLR4 + (TLR4 + (Wild type) mice; [1]): <1 +cells/HPF

SMILES: CC(=O)Nc1ccc(O)cc1 [APAP, acetaminophen]
- TLR4 agonist activity in serum (TLR4): high levels of TLR4 agonist activity
- ALT, TLR4 − (TLR4 − (Deficient) mice; 18 hr, APAP 500 mg/kg): 4810 ± 4045 U/mL
- ALT, TLR4 + (TLR4 + (Wild type) mice; wild type mice, 18 hr, APAP 500 mg/kg, n = 10/group): 9054 ± 4793 U/mL
- mortality (TLR4 + (Wild type) mice; wild-type mice, 500 mg/kg): 100%
